Results: patent US20250288683A1, “TETRAHYDROISOQUINOLINE HETEROBIFUNCTIONAL BCL-XL DEGRADERS” (Treeline Biosciences, Inc., priority 2022, published 2025)

These molecules were tested against T1, Human BCL-XL protein (N-terminal HiBiT tagged BCL-XL in HT1080 cells) (Homo sapiens, UniProt Q07817) (assay: HiBiT based degradation assay). Conditions: HT1080 cells expressing N-terminal HiBiT tagged BCL-XL, 6 h, normalized with DMSO control.
T1 construct: expressed in transfected cells; host or cells: HT-1080 (ATCC CCL-121), stably transduced with lentivirus pLV-UBC-N-HiBiT-BCL-XL-PGK-puro and selected with puromycin
T1 sequence (Q07817 whole entry): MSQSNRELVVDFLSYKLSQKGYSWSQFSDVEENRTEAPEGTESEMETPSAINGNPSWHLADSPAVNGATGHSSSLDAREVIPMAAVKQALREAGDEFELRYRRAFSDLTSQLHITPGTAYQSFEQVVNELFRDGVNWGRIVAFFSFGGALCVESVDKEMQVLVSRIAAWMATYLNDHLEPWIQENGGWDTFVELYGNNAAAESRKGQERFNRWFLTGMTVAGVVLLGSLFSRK
Type: cell-based
Text: HiBiT Based Degradation Assay
Human BCL-XL protein coding open reading frame fused with N-terminal HiBiT coding sequence was synthesized from Integrated DNA Technologies (IDT). Next, N-HiBiT-BCL-XL sequence was cloned into pLV-UBC-PGK-Puro, a lentivirus plasmid purchased from Vectorbuilder, to generate pLV-UBC-N-HiBiT-BCL-XL-PGK-puro. Lentiviral particles were generated from Lenti-X™ 293T cells (Clontech) by co-transfection of pLV-UBC-N-HiBiT-BCL-XL-PGK-puro plasmids and lentiviral packaging plasmid mix (Cellecta). HT-1080 [HT1080](ATCC CCL-121) cells were infected with the lentivirus, and HT1080 cells stably integrated with the lentiviral vectors were established by incubation with 1 μg/mL puromycin (Thermofisher).
HT1080 cells expressing N-terminal HiBiT tagged BCL-XL were dispensed into a 384-well plate pre-spotted with compounds at varying concentrations. Three thousand cells were seeded into each well in 40 μL of RPMI 1640 media. […] After incubation, luminescence was read on a PHERAstar FSX Plate Reader (BMG). BCL-XL degradation at each indicated concentration was normalized with the DMSO control. The BCL-XL degradation curves were plotted using a four-parameter logistic model. For compounds displaying hook effects, the curve fitting was performed using the bottom point of the hook curves (i.e., the point of Ymin) as the bottom plateau to calculate EC50.

| Ymin (6 h) | SMILES |
| --- | --- |
| A (Ymin < 50%) | Cc1ncsc1-c1ccc([C@H](C)NC(=O)[C@@H]2C[C@@H](O)CN2C(=O)[C@@H](NC(=O)CCCCCn2nc(C)c(-c3ccc(N4CCc5cccc(C(=O)Nc6nc7ccccc7s6)c5C4)nc3C(=O)O)c2C)C(C)(C)C)cc1 [Compound 101a, 6-[8-(1,3-benzothiazol-2-ylcarbamoyl)-3,4-dihydro-1H-isoquinolin-2-yl]-3-[1-[6-[[(1S)-1-[(2S,4R)-4-hydroxy-2-[[(1S)-1-[4-(4-methylthiazol-5-yl)phenyl]ethyl]carbamoyl]pyrrolidine-1-carbonyl]-2,2-dimethyl-propyl]amino]-6-oxo-hexyl]-3,5-dimethyl-pyrazol-4-yl]pyridine-2-carboxylic acid] |
| A (Ymin < 50%) | Cc1ncsc1-c1ccc([C@H](C)NC(=O)[C@@H]2C[C@@H](O)CN2C(=O)[C@@H](NC(=O)CCCCCCCCCCCCCCCn2nc(C)c(-c3ccc(N4CCc5cccc(C(=O)Nc6nc7ccccc7s6)c5C4)nc3C(=O)O)c2C)C(C)(C)C)cc1 [Compound 102a, 6-[8-(1,3-Benzothiazol-2-ylcarbamoyl)-3,4-dihydro-1H-isoquinolin-2-yl]-3-[1-[16-[[(1S)-1-[(2S,4R)-4-hydroxy-2-[[(1S)-1-[4-(4-methylthiazol-5-yl)phenyl]ethyl]carbamoyl]pyrrolidine-1-carbonyl]-2,2-dimethyl-propyl]amino]-16-oxo-hexadecyl]-3,5-dimethyl-pyrazol-4-yl]pyridine-2-carboxylic acid] |
| A (Ymin < 50%) | Cc1ncsc1-c1ccc([C@H](C)NC(=O)[C@@H]2C[C@@H](O)CN2C(=O)[C@@H](NC(=O)CCCCCCCn2nc(C)c(-c3ccc(N4CCc5cccc(C(=O)Nc6nc7ccccc7s6)c5C4)nc3C(=O)O)c2C)C(C)(C)C)cc1 [Compound 103a, 6-[8-(1,3-benzothiazol-2-ylcarbamoyl)-3,4-dihydro-1H-isoquinolin-2-yl]-3-[1-[8-[[(1S)-1-[(2S,4R)-4-hydroxy-2-[[(1S)-1-[4-(4-methylthiazol-5-yl)phenyl]ethyl]carbamoyl]pyrrolidine-1-carbonyl]-2,2-dimethyl-propyl]amino]-8-oxo-octyl]-3,5-dimethyl-pyrazol-4-yl]pyridine-2-carboxylic acid] |

Same assay, conditions: HT1080 cells expressing N-terminal HiBiT tagged BCL-XL, 24 h, normalized with DMSO control

| Ymin (24 h) | SMILES |
| --- | --- |
| B (50% ≤ Ymin < 70%) | Cc1ncsc1-c1ccc([C@H](C)NC(=O)[C@@H]2C[C@@H](O)CN2C(=O)[C@@H](NC(=O)C[C@@H](Cc2ccc(Oc3cccc(-c4ccc(N5CCc6cccc(C(=O)Nc7nc8ccccc8s7)c6C5)nc4C(=O)O)c3C)cc2)C(F)(F)F)C(C)(C)C)cc1 (relative stereo) [Compound 131b, 6-(8-(benzo[d]thiazol-2-ylcarbamoyl)-3,4-dihydroisoquinolin-2 (1H)-yl)-3-(3-(4-((R)-4-(((S)-1-((2S,4R)-4-hydroxy-2-(((S)-1-(4-(4-methylthiazol-5-yl)phenyl)ethyl)carbamoyl)pyrrolidin-1-yl)-3,3-dimethyl-1-oxobutan-2-yl)amino)-4-oxo-2-(trifluoromethyl)butyl)phenoxy)-2-methylphenyl)picolinic acid] |
| A (Ymin < 50%) | Cc1ncsc1-c1ccc([C@H](C)NC(=O)[C@@H]2C[C@@H](O)CN2C(=O)[C@@H](NC(=O)C[C@@H](C)Cc2ccc(Oc3cccc(-c4ccc(N5CCc6cccc(C(=O)Nc7nc8ccccc8s7)c6C5)nc4C(=O)O)c3C)cc2)C(C)(C)C)cc1 (relative stereo) [Compound 134a, 6-[8-(1,3-benzothiazol-2-ylcarbamoyl)-3,4-dihydro-1H-isoquinolin-2-yl]-3-[3-[4-[(2S)-4-[[(1S)-1-[(2S,4R)-4-hydroxy-2-[[(1S)-1-[4-(4-methylthiazol-5-yl)phenyl]ethyl]carbamoyl]pyrrolidine-1-carbonyl]-2,2-dimethyl-propyl]amino]-2-methyl-4-oxo-butyl]phenoxy]-2-methyl-phenyl]pyridine-2-carboxylic acid] |
| A (Ymin < 50%) | Cc1ncsc1-c1ccc([C@H](C)NC(=O)[C@@H]2C[C@@H](O)CN2C(=O)[C@@H](NC(=O)CC[C@@H](c2ccc(Oc3cccc(-c4ccc(N5CCc6cccc(C(=O)Nc7nc8ccccc8s7)c6C5)nc4C(=O)O)c3C)cc2)C(F)(F)F)C(C)(C)C)cc1 (relative stereo) [Compound 135a, 6-(8-(benzo[d]thiazol-2-ylcarbamoyl)-3,4-dihydroisoquinolin-2 (1H)-yl)-3-(2-methyl-3-(4-((S)-1,1,1-trifluoro-5-(((S)-1-((2S,4R)-4-hydroxy-2-(((S)-1-(4-(4-methylthiazol-5-yl)phenyl)ethyl)carbamoyl)pyrrolidin-1-yl)-3,3-dimethyl-1-oxobutan-2-yl)amino)-5-oxopentan-2-yl)phenoxy)phenyl)picolinic acid] |
| A (Ymin < 50%) | Cc1ncsc1-c1ccc([C@H](C)NC(=O)[C@@H]2C[C@@H](O)CN2C(=O)[C@@H](NC(=O)CC[C@H](c2ccc(Oc3cccc(-c4ccc(N5CCc6cccc(C(=O)Nc7nc8ccccc8s7)c6C5)nc4C(=O)O)c3C)cc2)C(F)(F)F)C(C)(C)C)cc1 (relative stereo) [Compound 135b, 6-(8-(benzo[d]thiazol-2-ylcarbamoyl)-3,4-dihydroisoquinolin-2 (1H)-yl)-3-(2-methyl-3-(4-((R)-1,1,1-trifluoro-5-(((S)-1-((2S,4R)-4-hydroxy-2-(((S)-1-(4-(4-methylthiazol-5-yl)phenyl)ethyl)carbamoyl)pyrrolidin-1-yl)-3,3-dimethyl-1-oxobutan-2-yl)amino)-5-oxopentan-2-yl)phenoxy)phenyl)picolinic acid] |
| A (Ymin < 50%) | Cc1ncsc1-c1ccc([C@H](C)NC(=O)[C@@H]2C[C@@H](O)CN2C(=O)[C@@H](NC(=O)CC[C@H](C)c2ccc(Oc3cccc(-c4ccc(N5CCc6cccc(C(=O)Nc7nc8ccccc8s7)c6C5)nc4C(=O)O)c3C)cc2)C(C)(C)C)cc1 (single isomer, unassigned) [Compound 129a] |
| A (Ymin < 50%) | Cc1ncsc1-c1ccc([C@H](C)NC(=O)[C@@H]2C[C@@H](O)CN2C(=O)[C@@H](NC(=O)CC[C@@H](C)c2ccc(Oc3cccc(-c4ccc(N5CCc6cccc(C(=O)Nc7nc8ccccc8s7)c6C5)nc4C(=O)O)c3C)cc2)C(C)(C)C)cc1 (single isomer, unassigned) [Compound 129b] |
| A (Ymin < 50%) | Cc1ncsc1-c1ccc([C@H](C)NC(=O)[C@@H]2C[C@@H](O)CN2C(=O)[C@@H](NC(=O)C[C@H](Cc2ccc(Oc3cccc(-c4ccc(N5CCc6cccc(C(=O)Nc7nc8ccccc8s7)c6C5)nc4C(=O)O)c3C)cc2)C(F)(F)F)C(C)(C)C)cc1 (single isomer, unassigned) [Compound 131a] |
| A (Ymin < 50%) | Cc1ncsc1-c1ccc([C@H](C)NC(=O)[C@@H]2C[C@@H](O)CN2C(=O)[C@@H](NC(=O)CC(C)Cc2ccc(Oc3cccc(-c4ccc(N5CCc6cccc(C(=O)Nc7nc8ccccc8s7)c6C5)nc4C(=O)O)c3C)cc2)C(C)(C)C)cc1 (single isomer, unassigned) [Compound 134b, 6-(8-(benzo[d]thiazol-2-ylcarbamoyl)-3,4-dihydroisoquinolin-2(1H)-yl)-3-(3-(4-((R*)-4-(((S)-1-((2S,4R)-4-hydroxy-2-(((S)-1-(4-(4-methylthiazol-5-yl)phenyl)ethyl)carbamoyl)pyrrolidin-1-yl)-3,3-dimethyl-1-oxobutan-2-yl)amino)-2-methyl-4-oxobutyl)phenoxy)-2-methylphenyl)picolinic acid] |
| A (Ymin < 50%) | Cc1ncsc1-c1ccc([C@H](C)NC(=O)[C@@H]2C[C@@H](O)CN2C(=O)[C@@H](NC(=O)C(C)(C)[C@H]2CC[C@@H](Oc3cccc(-c4ccc(N5CCc6cccc(C(=O)Nc7nc8ccccc8s7)c6C5)nc4C(=O)O)c3C)CC2)C(C)(C)C)cc1 (single isomer, unassigned) [Compound 138a] |
| C (Ymin ≥ 70%) | Cc1ncsc1-c1ccc([C@H](C)NC(=O)[C@@H]2C[C@@H](O)CN2C(=O)[C@@H](NC(=O)C(C)(C)[C@H]2CC[C@H](Oc3cccc(-c4ccc(N5CCc6cccc(C(=O)Nc7nc8ccccc8s7)c6C5)nc4C(=O)O)c3C)CC2)C(C)(C)C)cc1 (single isomer, unassigned) [Compound 138b] |
| A (Ymin < 50%) | Cc1ncsc1-c1ccc([C@H](C)NC(=O)[C@@H]2C[C@@H](O)CN2C(=O)[C@@H](NC(=O)[C@H](C)CCc2ccc(Oc3cccc(-c4ccc(N5CCc6cccc(C(=O)Nc7nc8ccccc8s7)c6C5)nc4C(=O)O)c3C)cc2)C(C)(C)C)cc1 (single isomer, unassigned) [Compound 143a] |
| A (Ymin < 50%) | Cc1ncsc1-c1ccc([C@H](C)NC(=O)[C@@H]2C[C@@H](O)CN2C(=O)[C@@H](NC(=O)[C@@H](C)CCc2ccc(Oc3cccc(-c4ccc(N5CCc6cccc(C(=O)Nc7nc8ccccc8s7)c6C5)nc4C(=O)O)c3C)cc2)C(C)(C)C)cc1 (single isomer, unassigned) [Compound 143b] |
